Data as given in patent US20260146274A1, “RECOMBINANT SMALL-MOLECULE COLLAGEN, EXPRESSION SYSTEM THEREOF, AND PREPARATION METHOD THEREOF” (JIANGSU TRAUTEC MEDICAL TECHNOLOGY CO., LTD., priority 2023, published 2026).

System: NIH/3T3 cell
Experiment: Cell adhesion activity detection (LDH kit, OD492 nm)
Assay type: cell-based
Details: for cell adhesion activity (absorbance at OD492 nm) compared with natural human collagen: protein coated at 0.5 mg/mL, NIH/3T3 cells, 60 minutes, FIG. 26
Method: References for Detection Method for Cell Adhesion Activity of Recombinant Small-Molecule Collagen: Juming Yao, Satoshi Yanagisawa, Tetsuo Asakura. Design, Expression and Characterization of Collagen-Like Proteins Based on the Cell Adhesive and Crosslinking Sequences Derived from natural Collagens, J Biochem. 136, 643-649 (2004).
Specific implementation method: A NIH/3T3 cell was cultured under standard conditions (purchased from Cell Bank of the Chinese Academy of Sciences, with catalog number of GNM6. Culture and passage methods followed a cell instruction). […] A natural human collagen (Sigma, Catalog No. C7774) was compared to a bovine serum albumin solution (BSA, purchased from Sangon Biotech (Shanghai) Co., Ltd.) (in ultrapure water or 1M HCl solution). Protein concentration was determined using the UV protein quantification empirical formula: C (mg/mL)=0.144×(A215-A225). Then, the protein was diluted to 0.5 mg/mL with PBS (pH 7.4).
100 μL of various protein solutions and blank PBS solution were added to a 96-well cell culture plate, and set aside 60 minutes at room temperature. Then, […] NIH/3T3 cells with good culture status were added to each well, and incubated at 37° C. and 5% CO2 for 60 minutes. The cells were cleaned in the wells 4 times with PBS. An absorbance value at OD492 nm was detected using a LDH detection kit (Roche, 04744926001). Data were analyzed and subject to significant differential analysis (SPSS 22 software, Duncan's method, P<0.05).
The absorbance value at OD492 nm characterized the cell adhesion activity of a collagen sample: higher adhesion activity indicated more cells adhering to the protein.

[1] = equivalent concentrations (0.5 mg/mL), NIH/3T3, Duncan's method P<0.05

| Molecule | cell adhesion activity compared with larger-molecular-weight recombinant type-XVII collagen [1] | cell adhesion activity (absorbance at OD492 nm) compared with natural human collagen | cell adhesion activity compared with larger-molecular-weight recombinant type-III collagen [1] |
| --- | --- | --- | --- |
| 17S1NNT: 82 amino acids, positions 636 to 718 of full-length human collagen XVII, SEQ ID NO.5 | no significant difference | comparable to or superior to that of a natural human collagen | – |
| 3A5D1NT: 96 amino acids, positions 990 to 1085 of full-length human type III collagen, SEQ ID NO.1 (protein, listed as Homo sapiens, Recombinant small-molecule collagen 3A5D1NT) DGNPGSDGLPGRDGSPGGKGDRGENGSPGAPGAPGHPGPPGPVGPAGKSGDRGESGPAGPAGAPGPAGSRGAPGPQGPRGDKGETGERGAAGIKGH | – | comparable to or superior to that of a natural human collagen | significantly outperformed |
